Source: ChEMBL document CHEMBL3120141, “Discovery of (1R,6S)-5-[4-(1-cyclobutyl-piperidin-4-yloxy)-phenyl]-3,4-diaza-bicyclo[4.1.0]hept-4-en-2-one (R,S-4a): histamine H(3) receptor inverse agonist demonstrating potent cognitive enhancing and wake promoting activity” (Bioorg Med Chem Lett, 2014)

Columns and labels:
[1] = target: Histamine H3 receptor (Rattus norvegicus, UniProt Q9QYN8); assay: Displacement of [3H]NAMH from rat histamine H3 receptor transfected in CHO cells; format: cell-based
[2] = target: T1, Histamine H3 receptor (Homo sapiens, UniProt Q9Y5N1); assay: Displacement of [3H]NAMH from human histamine H3 receptor transfected in CHO cells; format: cell-based
T1 sequence (Q9Y5N1 whole entry): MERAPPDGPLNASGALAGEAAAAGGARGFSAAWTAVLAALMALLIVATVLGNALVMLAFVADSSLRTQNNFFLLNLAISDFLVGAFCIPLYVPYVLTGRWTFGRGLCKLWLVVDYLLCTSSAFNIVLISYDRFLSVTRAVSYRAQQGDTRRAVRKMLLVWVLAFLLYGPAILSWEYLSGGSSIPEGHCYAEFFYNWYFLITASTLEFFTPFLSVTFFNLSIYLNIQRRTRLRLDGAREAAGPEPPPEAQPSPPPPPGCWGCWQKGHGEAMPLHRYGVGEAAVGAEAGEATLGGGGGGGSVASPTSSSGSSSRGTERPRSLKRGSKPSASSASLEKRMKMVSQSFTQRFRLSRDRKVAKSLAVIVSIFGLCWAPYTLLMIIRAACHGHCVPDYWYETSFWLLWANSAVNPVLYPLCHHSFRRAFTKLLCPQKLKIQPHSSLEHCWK

[3] = test system: Liver microsome; assay: Metabolic stability in human liver microsomes; format: ADME
[4] = organism: Homo sapiens; assay: Selectivity ratio for human histamine H3 receptor over human histamine H1 receptor
[5] = organism: Homo sapiens; assay: Selectivity ratio for human histamine H3 receptor over human histamine H4 receptor
[6] = test system: Liver microsome; assay: Metabolic stability in dog liver microsomes; format: ADME, Canis lupus familiaris
[7] = test system: Liver microsome; assay: Metabolic stability in rat liver microsomes; format: ADME
[8] = Metabolic stability in mouse liver microsomes; format: ADME, Microsome
[9] = Oral bioavailability in rat; format: ADME, organism-based; settings: in vivo
[10] = organism: Homo sapiens; assay: Selectivity ratio for human histamine H3 receptor over human histamine H2 receptor
[11] = target: Cytochrome P450 2D6 (Homo sapiens, UniProt P10635); assay: Inhibition of CYP2D6 (unknown origin); format: ADME
Cytochrome P450 2D6, sequence (P10635 whole entry): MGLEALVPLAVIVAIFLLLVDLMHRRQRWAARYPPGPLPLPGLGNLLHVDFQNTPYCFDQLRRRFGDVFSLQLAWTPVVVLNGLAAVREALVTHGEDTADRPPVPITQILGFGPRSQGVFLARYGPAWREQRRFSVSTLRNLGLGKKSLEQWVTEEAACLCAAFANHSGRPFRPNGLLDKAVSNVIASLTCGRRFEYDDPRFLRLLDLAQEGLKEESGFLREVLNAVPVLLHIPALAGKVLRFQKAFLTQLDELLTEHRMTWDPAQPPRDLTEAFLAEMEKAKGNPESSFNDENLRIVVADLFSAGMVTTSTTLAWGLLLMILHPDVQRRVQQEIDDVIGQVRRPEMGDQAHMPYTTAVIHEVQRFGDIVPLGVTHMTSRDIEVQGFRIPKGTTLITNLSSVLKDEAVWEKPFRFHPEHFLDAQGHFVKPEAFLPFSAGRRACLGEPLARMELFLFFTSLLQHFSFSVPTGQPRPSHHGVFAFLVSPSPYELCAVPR

[12] = target: Cytochrome P450 3A4 (Homo sapiens, UniProt P08684); assay: Inhibition of CYP3A4 (unknown origin); format: ADME
Cytochrome P450 3A4, sequence (P08684 whole entry): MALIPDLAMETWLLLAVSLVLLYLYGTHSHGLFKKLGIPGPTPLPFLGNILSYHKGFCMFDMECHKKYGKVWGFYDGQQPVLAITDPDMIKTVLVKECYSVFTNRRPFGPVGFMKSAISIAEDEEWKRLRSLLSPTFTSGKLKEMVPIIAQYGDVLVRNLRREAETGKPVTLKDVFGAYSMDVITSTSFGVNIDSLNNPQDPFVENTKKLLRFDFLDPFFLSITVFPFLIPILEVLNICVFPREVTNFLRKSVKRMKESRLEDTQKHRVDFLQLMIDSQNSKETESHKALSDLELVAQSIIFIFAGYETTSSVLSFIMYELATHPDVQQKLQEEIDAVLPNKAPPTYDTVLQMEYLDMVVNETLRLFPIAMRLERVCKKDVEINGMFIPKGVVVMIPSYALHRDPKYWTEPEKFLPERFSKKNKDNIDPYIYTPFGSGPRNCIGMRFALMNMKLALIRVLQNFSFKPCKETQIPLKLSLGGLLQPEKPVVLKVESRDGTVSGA

[13] = target: Histamine H1 receptor (Homo sapiens) (UniProt P35367); assay: Inhibition of human histamine H1 receptor at 10 uM
Histamine H1 receptor (Homo sapiens), sequence (P35367 whole entry): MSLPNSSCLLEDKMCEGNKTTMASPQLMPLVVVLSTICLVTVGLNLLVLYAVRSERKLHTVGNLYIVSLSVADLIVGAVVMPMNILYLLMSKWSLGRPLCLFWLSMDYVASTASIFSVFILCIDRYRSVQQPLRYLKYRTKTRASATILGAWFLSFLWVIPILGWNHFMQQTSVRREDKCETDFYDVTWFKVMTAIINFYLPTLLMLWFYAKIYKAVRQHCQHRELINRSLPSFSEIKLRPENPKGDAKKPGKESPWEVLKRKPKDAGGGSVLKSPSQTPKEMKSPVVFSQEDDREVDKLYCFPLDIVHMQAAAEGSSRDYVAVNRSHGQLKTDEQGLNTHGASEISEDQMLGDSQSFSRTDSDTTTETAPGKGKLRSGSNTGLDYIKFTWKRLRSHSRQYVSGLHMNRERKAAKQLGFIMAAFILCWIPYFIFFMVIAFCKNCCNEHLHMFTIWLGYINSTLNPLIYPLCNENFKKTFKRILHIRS

[14] = Ratio of drug uptake in brain to plasma in rat at 10 mg/kg, ip after 6 hrs; format: ADME, organism-based; set-up: dose 10 mg/kg, route intraperitoneal; settings: read-out: BPR
[15] = Half life in monkey liver microsomes; format: ADME, Macaca mulatta, Microsome; settings: rhesus monkey
[16] = target: T1, Histamine H3 receptor; assay: Inverse agonist activity at human histamine H3 receptor by [35S]GTPgammaS binding assay; format: functional
[17] = target: Histamine H4 receptor (Homo sapiens) (UniProt Q9H3N8); assay: Inhibition of human histamine H4 receptor at 10 uM
Histamine H4 receptor (Homo sapiens), sequence (Q9H3N8 whole entry): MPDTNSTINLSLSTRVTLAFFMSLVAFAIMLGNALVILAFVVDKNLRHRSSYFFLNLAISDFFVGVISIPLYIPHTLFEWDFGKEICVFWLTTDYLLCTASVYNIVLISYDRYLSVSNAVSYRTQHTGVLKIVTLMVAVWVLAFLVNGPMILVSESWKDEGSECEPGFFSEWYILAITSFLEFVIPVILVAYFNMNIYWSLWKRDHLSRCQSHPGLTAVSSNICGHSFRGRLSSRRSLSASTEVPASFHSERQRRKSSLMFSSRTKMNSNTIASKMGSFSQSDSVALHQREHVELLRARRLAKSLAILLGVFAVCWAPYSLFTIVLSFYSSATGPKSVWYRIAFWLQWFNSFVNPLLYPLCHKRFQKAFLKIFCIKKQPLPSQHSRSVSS

[18] = target: Histamine H2 receptor (Homo sapiens) (UniProt P25021); assay: Inhibition of human histamine H2 receptor at 10 uM
Histamine H2 receptor (Homo sapiens), sequence (P25021 whole entry): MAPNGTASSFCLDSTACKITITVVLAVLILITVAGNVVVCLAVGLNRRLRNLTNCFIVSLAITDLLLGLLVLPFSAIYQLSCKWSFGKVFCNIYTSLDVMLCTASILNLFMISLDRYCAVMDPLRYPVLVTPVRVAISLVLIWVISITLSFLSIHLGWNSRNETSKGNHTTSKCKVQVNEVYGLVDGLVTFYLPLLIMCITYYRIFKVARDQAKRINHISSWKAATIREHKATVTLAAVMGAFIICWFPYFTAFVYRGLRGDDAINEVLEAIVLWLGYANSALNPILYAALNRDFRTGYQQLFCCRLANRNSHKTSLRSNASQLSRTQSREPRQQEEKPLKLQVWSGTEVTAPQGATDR

[19] = Volume of distribution at steady state in rat at 1 mg/kg, iv; format: ADME, organism-based; set-up: dose 1 mg/kg, route intravenous; settings: in vivo, read-out: Vdss
[20] = Terminal half life in rat at 1 mg/kg, iv; format: ADME, organism-based; set-up: dose 1 mg/kg, route intravenous; settings: in vivo, read-out: beta t1/2 (converted)
[21] = test system: Rattus norvegicus; assay: Oral bioavailability in rat at 5 mg/kg; format: ADME, organism-based; settings: in vivo
[22] = Half life in mouse liver microsomes; format: ADME, Microsome
[23] = Half life in rat liver microsomes; format: ADME
[24] = Half life in dog liver microsomes; format: ADME, Canis lupus familiaris
[25] = Half life in human liver microsomes; format: ADME
[26] = target: Cytochrome P450 2C9 (Homo sapiens, UniProt P11712); assay: Inhibition of CYP2C9 (unknown origin); format: ADME
Cytochrome P450 2C9, sequence (P11712 whole entry): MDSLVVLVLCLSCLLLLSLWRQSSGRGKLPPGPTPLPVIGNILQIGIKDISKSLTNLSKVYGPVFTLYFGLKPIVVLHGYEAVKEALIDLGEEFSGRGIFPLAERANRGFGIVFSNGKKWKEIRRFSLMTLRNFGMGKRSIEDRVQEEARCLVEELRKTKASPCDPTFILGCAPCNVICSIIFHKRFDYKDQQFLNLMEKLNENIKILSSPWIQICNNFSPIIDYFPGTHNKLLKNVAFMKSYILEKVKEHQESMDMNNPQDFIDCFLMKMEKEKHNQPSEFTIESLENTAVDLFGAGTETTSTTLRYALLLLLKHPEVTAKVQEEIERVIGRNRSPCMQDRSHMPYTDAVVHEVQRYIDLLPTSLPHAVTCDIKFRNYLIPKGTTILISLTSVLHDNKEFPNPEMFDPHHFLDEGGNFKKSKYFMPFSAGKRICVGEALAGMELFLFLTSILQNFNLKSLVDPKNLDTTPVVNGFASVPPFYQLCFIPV

[27] = target: T2, Cytochrome P450 1A2 (Homo sapiens, UniProt P05177); assay: Inhibition of CYP1A2 (unknown origin); format: ADME
T2 sequence (P05177 whole entry): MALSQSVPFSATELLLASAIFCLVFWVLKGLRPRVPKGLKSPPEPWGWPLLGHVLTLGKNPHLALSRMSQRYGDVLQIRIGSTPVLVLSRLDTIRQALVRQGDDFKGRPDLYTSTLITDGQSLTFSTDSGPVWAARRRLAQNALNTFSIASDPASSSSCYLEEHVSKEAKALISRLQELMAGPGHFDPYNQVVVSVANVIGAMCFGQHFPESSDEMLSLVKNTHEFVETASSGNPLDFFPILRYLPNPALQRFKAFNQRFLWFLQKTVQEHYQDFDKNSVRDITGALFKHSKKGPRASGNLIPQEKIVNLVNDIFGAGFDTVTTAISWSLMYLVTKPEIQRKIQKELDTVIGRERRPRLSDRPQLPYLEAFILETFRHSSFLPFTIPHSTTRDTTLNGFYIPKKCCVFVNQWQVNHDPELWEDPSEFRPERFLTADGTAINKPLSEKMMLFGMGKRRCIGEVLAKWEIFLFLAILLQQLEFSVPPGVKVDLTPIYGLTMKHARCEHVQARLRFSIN

[28] = test system: Rattus norvegicus; assay: AUC in rat at 5 mg/kg, po; format: ADME, organism-based, Plasma; set-up: dose 5 mg/kg, route oral; settings: in vivo
[29] = Cmax in rat at 5 mg/kg, po; format: ADME, organism-based; set-up: dose 5 mg/kg, route oral; settings: in vivo
[30] = target: Voltage-gated inwardly rectifying potassium channel KCNH2 (Homo sapiens, UniProt Q12809); assay: Inhibition of human ERG channel by patch clamp technique
[31] = target: Sodium-dependent dopamine transporter (Homo sapiens) (UniProt Q01959); assay: Inhibition of dopamine transporter (unknown origin) at 10 uM
Sodium-dependent dopamine transporter (Homo sapiens), sequence (Q01959 whole entry): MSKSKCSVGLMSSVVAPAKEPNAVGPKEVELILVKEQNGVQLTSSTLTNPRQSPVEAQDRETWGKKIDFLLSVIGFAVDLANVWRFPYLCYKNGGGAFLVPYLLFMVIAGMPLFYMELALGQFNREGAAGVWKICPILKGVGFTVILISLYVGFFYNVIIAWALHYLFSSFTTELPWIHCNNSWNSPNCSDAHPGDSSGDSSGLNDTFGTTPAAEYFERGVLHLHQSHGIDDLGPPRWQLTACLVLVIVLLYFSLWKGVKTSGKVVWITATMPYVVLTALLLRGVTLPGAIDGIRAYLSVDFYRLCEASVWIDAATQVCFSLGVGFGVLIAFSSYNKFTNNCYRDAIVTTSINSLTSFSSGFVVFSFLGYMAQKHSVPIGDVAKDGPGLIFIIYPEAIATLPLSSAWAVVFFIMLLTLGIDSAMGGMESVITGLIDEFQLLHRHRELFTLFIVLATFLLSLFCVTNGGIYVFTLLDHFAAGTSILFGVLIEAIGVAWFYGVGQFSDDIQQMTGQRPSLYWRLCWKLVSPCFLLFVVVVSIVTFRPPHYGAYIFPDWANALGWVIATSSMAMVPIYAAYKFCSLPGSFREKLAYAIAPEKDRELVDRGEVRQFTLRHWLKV

[32] = target: Cytochrome P450 2C19 (Homo sapiens, UniProt P33261); assay: Inhibition of CYP2C19 (unknown origin); format: ADME
Cytochrome P450 2C19, sequence (P33261 whole entry): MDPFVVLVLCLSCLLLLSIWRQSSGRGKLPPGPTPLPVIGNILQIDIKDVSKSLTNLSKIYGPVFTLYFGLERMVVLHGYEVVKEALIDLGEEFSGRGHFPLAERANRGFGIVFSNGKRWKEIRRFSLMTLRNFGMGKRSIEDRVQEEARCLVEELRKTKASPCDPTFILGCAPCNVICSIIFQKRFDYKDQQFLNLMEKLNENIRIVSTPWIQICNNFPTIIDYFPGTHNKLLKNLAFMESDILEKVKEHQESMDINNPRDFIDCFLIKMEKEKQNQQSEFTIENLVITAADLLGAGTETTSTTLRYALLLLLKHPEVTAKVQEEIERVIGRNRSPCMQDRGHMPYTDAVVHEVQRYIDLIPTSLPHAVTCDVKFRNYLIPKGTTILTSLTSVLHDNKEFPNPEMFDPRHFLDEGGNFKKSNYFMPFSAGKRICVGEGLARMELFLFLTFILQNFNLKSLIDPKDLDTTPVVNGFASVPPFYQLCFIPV

Histamine H3 receptor (Rattus norvegicus, UniProt Q9QYN8), sequence (Q9QYN8 whole entry): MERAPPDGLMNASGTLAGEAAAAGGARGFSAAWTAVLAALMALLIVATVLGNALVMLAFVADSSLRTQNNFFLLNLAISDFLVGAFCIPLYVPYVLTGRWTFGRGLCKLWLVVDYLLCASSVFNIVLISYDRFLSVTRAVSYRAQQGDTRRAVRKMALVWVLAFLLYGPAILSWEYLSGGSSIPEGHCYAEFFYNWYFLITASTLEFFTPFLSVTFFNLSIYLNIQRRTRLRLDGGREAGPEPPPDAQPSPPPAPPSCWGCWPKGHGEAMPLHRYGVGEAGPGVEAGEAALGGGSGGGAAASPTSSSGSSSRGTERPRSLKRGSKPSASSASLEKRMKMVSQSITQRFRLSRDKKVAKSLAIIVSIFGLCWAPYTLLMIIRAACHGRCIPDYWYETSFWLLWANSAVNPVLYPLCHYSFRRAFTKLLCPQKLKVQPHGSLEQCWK

## O=C1NN=C(c2ccc(OC3CCN(C4CCC4)CC3)cc2)C2CC12 (racemic)
[1]
  Ki: 8.4 nM
[2]
  Ki: 4.7 nM

## CN1N=C(c2ccc(OC3CCN(C4CCC4)CC3)cc2)C2CC2C1=O (racemic)
[3]
  Stability: Stable
[4]
  Selectivity ratio: > 1000
[5]
  Selectivity ratio: > 1000
[6]
  Stability: Stable
[1]
  Ki: 6.9 nM
[7]
  Stability: Stable
[8]
  Stability: Stable
[9]
  bioavailability: 6%
[2]
  Ki: 4 nM
[10]
  Selectivity ratio: > 1000

## O=C1NN=C(c2ccc(OC3CCN(C4CCC4)CC3)cc2)[C@@H]2C[C@H]12
[11]
  IC50: > 30000 nM
[12]
  IC50: > 30000 nM
[13]
  inhibition: < 10%
[14]
  Kp at 6 h: 5
[15]
  half-life: > 40 min
[16]
  EC50: 0.5 nM
[17]
  inhibition: < 10%
[18]
  inhibition: < 10%
[19]
  Vd: 3 L/kg
[20]
  half-life: 96 min
[1]
  Ki: 12 nM
[21]
  F: 66%
[22]
  half-life: > 40 min
[23]
  half-life: > 40 min
[24]
  half-life: > 40 min
[25]
  half-life: > 40 min
[26]
  IC50: > 30000 nM
[27]
  IC50: > 30000 nM
[28]
  AUC: 5144 ng·h/mL
[29]
  Cmax: 649 ng/mL
[30]
  IC50: 6000 nM
[31]
  inhibition: 63%
[32]
  IC50: > 30000 nM
[2]
  Ki: 6.8 nM

## CC(C)N1N=C(c2ccc(OC3CCN(C4CCC4)CC3)cc2)C2CC2C1=O (racemic)
[4]
  Selectivity ratio: > 1000
[5]
  Selectivity ratio: > 1000
[1]
  Ki: 5.6 nM
[2]
  Ki: 6.9 nM
[10]
  Selectivity ratio: > 1000

## O=C1C2CC2C(c2ccc(OC3CCN(C4CCC4)CC3)cc2)=NN1c1ccc(F)cc1 (racemic)
[4]
  Selectivity ratio: > 1000
[5]
  Selectivity ratio: > 1000
[1]
  Ki: 6.7 nM
[2]
  Ki: 3.5 nM
[10]
  Selectivity ratio: > 1000

## CC(C)N1CCC(Oc2ccc(C3=NNC(=O)C4CC34)cc2)CC1 (racemic)
[11]; human
  inhibition (INH): Not Active
[12]; human
  inhibition (INH): Not Active
[3]
  Stability: Stable
[4]
  Selectivity ratio: > 1000
[5]
  Selectivity ratio: > 1000
[6]
  Stability: Stable
[1]
  Ki: 51 nM
[7]
  Stability: Stable
[8]
  Stability: Stable
[26]; human
  inhibition (INH): Not Active
[27]; human
  inhibition (INH): Not Active
[32]; human
  inhibition (INH): Not Active
[2]
  Ki: 9.1 nM
[10]
  Selectivity ratio: > 1000
